Structures are written as SMILES. In brackets after ≈: the same amount, converted by molar mass.

For series [1], the system named is Klebsiella pneumoniae. Description: Antibacterial activity against Carbapenem-resistant Klebsiella pneumoniae BM1 clinical isolates assessed as reduction in bacterial growth by broth microdilution method. Format: functional.
In series [2] the test system is Acinetobacter baumannii. Briefly: Antibacterial activity against polymyxin-susceptible Acinetobacter baumannii ATCC 19606 clinical isolates assessed as reduction in bacterial growth by broth microdilution method. Format: functional. On the technique in general: Broth dilution looks for growth in wells or tubes with falling amounts of substance.
For series [3], the system named is Pseudomonas aeruginosa. Briefly: Antibacterial activity against polymyxin-susceptible Pseudomonas aeruginosa FADD1-PA038 clinical isolates assessed as reduction in bacterial growth by broth microdilution method. Format: functional.
Series [4] deals with Klebsiella pneumoniae. Description: Antibacterial activity against Carbapenem-resistant Klebsiella pneumoniae FADD1-KP032 clinical isolates assessed as reduction in bacterial growth by broth microdilution method. The format is functional.
For series [5], the system named is Pseudomonas aeruginosa. Description: Antibacterial activity against polymyxin-susceptible Pseudomonas aeruginosa FADD1-PA025 clinical isolates assessed as reduction in bacterial growth by broth microdilution method. Format: functional.
The subject of series [6] is Pseudomonas aeruginosa. Description: Antibacterial activity against Carbapenem-resistant Pseudomonas aeruginosa FADD1-PA001 clinical isolates assessed as reduction in bacterial growth by broth microdilution method. The format is functional.
For series [7], the system named is Enterobacter cloacae. Briefly: Antibacterial activity against polymyxin-susceptible Enterobacter cloacae FADD1-EC003 clinical isolates assessed as reduction in bacterial growth by broth microdilution method. The format is functional.
Series [8] concerns Enterobacter cloacae. Briefly: Antibacterial activity against polymyxin-susceptible Enterobacter cloacae FADD1-EC001 clinical isolates assessed as reduction in bacterial growth by broth microdilution method. The format is functional.
Series [9] concerns Enterobacter cloacae. Description: Antibacterial activity against polymyxin-susceptible Enterobacter cloacae FADD1-EC006 clinical isolates assessed as reduction in bacterial growth by broth microdilution method. The format is functional.
For series [10], the system named is Acinetobacter baumannii. Description: Antibacterial activity against Carbapenem-resistant Acinetobacter baumannii FADD1-AB034 clinical isolates assessed as reduction in bacterial growth by broth microdilution method. The format is functional.
The test system of series [11] is Pseudomonas aeruginosa. Description: Antibacterial activity against polymyxin-susceptible Pseudomonas aeruginosa ATCC 27853 clinical isolates assessed as reduction in bacterial growth by broth microdilution method. The format is functional.
Series [12] concerns Klebsiella pneumoniae. Briefly: Antibacterial activity against Carbapenem-resistant Klebsiella pneumoniae FADD1-KP065 clinical isolates assessed as reduction in bacterial growth by broth microdilution method. Format: functional.
The subject of series [13] is Pseudomonas aeruginosa. Description: Antibacterial activity against Carbapenem-resistant Pseudomonas aeruginosa FADD1-PA022 clinical isolates assessed as reduction in bacterial growth by broth microdilution method. Format: functional.
The subject of series [14] is Acinetobacter baumannii. Briefly: Antibacterial activity against polymyxin-susceptible Acinetobacter baumannii ATCC 17978 clinical isolates assessed as reduction in bacterial growth by broth microdilution method. Format: functional.
For series [15], the system named is Klebsiella pneumoniae. Briefly: Antibacterial activity against polymyxin-susceptible Klebsiella pneumoniae ATCC 700721 clinical isolates assessed as reduction in bacterial growth by broth microdilution method. Format: functional.
The test system of series [16] is Klebsiella pneumoniae. Briefly: Antibacterial activity against Carbapenem-resistant Klebsiella pneumoniae FADD1-KP022 clinical isolates assessed as reduction in bacterial growth by broth microdilution method. Format: functional.
A short description of series [17]: Acute toxicity in Swiss mouse assessed as maximum tolerated dose administered intravenously measured over 24 hrs. The following applies: in vivo, route iv.
Series [18] deals with Acinetobacter baumannii. Briefly: Antibacterial activity against Carbapenem-resistant Acinetobacter baumannii FADD1-AB030 clinical isolates assessed as reduction in bacterial growth by broth microdilution method. Format: functional.
Series [19] can be described thus: Nephrotoxicity in Swiss mouse assessed as histopathological changes in kidney by measuring semiquantitative score at 12 mg/kg, sc administered as free base every 2 hrs for 6 doses and measured at 20 hrs. Format: toxicity, organism-based. To be noted: in vivo.

Usually MIC stands for the least concentration at which growth counts as inhibited. Usually MTD stands for the largest dose that counted as tolerated. For `CCC[C@@H]1NC(=O)[C@H](CCN)NC(=O)[C@H](CCN)NC(=O)[C@H](CC(C)C)NC(=O)[C@@H](Cc2ccccc2)NC(=O)[C@H](CCN)NC(=O)[C@@H](NC(=O)[C@H](CCN)NC(=O)[C@@H](NC(=O)[C@H](CCN)NC(=O)CCCC[C@@H](C)CC)[C@@H](C)O)CCNC1=O`, the MIC in the series on Klebsiella pneumoniae [1] turned out to be 1 µg/mL (≈ 0.832 µM); in the series with Acinetobacter baumannii [2], 4 µg/mL (≈ 3.33 µM); in the series with Pseudomonas aeruginosa [3] it was 2 µg/mL (≈ 1.66 µM); in the series on Klebsiella pneumoniae [4] it was 1 µg/mL (≈ 0.832 µM); in the series on Pseudomonas aeruginosa [5], 2 µg/mL (≈ 1.66 µM); in the series with Pseudomonas aeruginosa [6], 1 µg/mL (≈ 0.832 µM). Also, the MIC was 2 µg/mL (≈ 1.66 µM) in the series on Enterobacter cloacae [7]; 2 µg/mL (≈ 1.66 µM) in the series with Enterobacter cloacae [8]; 2 µg/mL (≈ 1.66 µM) in the series with Enterobacter cloacae [9]; 4 µg/mL (≈ 3.33 µM) with Acinetobacter baumannii [10]; 1 µg/mL (≈ 0.832 µM) in the series on Pseudomonas aeruginosa [11]; 0.5 µg/mL (≈ 0.416 µM) in the series with Klebsiella pneumoniae [12]. The MIC in the series with Pseudomonas aeruginosa [13] is 1 µg/mL (≈ 0.832 µM); in the series with Acinetobacter baumannii [14], 4 µg/mL (≈ 3.33 µM); in the series on Klebsiella pneumoniae [15], 2 µg/mL (≈ 1.66 µM); in the series with Klebsiella pneumoniae [16], 0.5 µg/mL (≈ 0.416 µM); with Acinetobacter baumannii [18], 0.5 µg/mL (≈ 0.416 µM). For the same molecule, the MTD at 24 h in series [17] is 4.1 mg/kg. Also, the Activity in series [19] turned out to be 0.

The values above are taken from ChEMBL document CHEMBL5316337, “Critical Role of Position 10 Residue in the Polymyxin Antimicrobial Activity” (J Med Chem, 2023).
